Source: ChEMBL document CHEMBL3286219, “NF-κB inhibitory activity of polyoxygenated steroids from the Vietnamese soft coral Sarcophyton pauciplicatum” (Bioorg Med Chem Lett, 2014)
Activity calls are given as the source filed them. The rule behind the calls is not given here.

What was measured:
Format in all cases: cell-based
[1] = target: Nuclear factor NF-kappa-B complex (Homo sapiens, UniProt P19838+Q00653+Q04206); assay: Inhibition of NF-kappaB activation in human HaCaT cells assessed as inhibition of TNFalpha/IFNgamma-induced transcriptional activity after 24 hrs by Renilla luciferase assay
HaCaT = assay: Cytotoxicity against human HaCaT cells at 5 to 20 uM after 24 hrs by MTS assay
[2] = target: T1, Nuclear factor NF-kappa-B complex (Homo sapiens) (UniProt Q00653+P19838+Q04206); assay: Inhibition of NF-kappaB activation in human HaCaT cells assessed as inhibition of TNFalpha/IFNgamma-induced transcriptional activity at 50 uM after 24 hrs by Renilla luciferase assay
[3] = target: T1, Nuclear factor NF-kappa-B complex (Homo sapiens); assay: Inhibition of NF-kappaB activation in human HaCaT cells assessed as inhibition of TNFalpha/IFNgamma-induced ICAM-1 mRNA expression after 1 hr by RT-PCR
[4] = target: T1, Nuclear factor NF-kappa-B complex (Homo sapiens); assay: Inhibition of NF-kappaB activation in human HaCaT cells assessed as inhibition of TNFalpha/IFNgamma-induced COX2 mRNA expression after 1 hr by RT-PCR
[5] = target: T1, Nuclear factor NF-kappa-B complex (Homo sapiens); assay: Inhibition of NF-kappaB activation in human HaCaT cells assessed as inhibition of TNFalpha/IFNgamma-induced iNOS mRNA expression after 1 hr by RT-PCR

T1 sequence (P19838 whole entry, looked up): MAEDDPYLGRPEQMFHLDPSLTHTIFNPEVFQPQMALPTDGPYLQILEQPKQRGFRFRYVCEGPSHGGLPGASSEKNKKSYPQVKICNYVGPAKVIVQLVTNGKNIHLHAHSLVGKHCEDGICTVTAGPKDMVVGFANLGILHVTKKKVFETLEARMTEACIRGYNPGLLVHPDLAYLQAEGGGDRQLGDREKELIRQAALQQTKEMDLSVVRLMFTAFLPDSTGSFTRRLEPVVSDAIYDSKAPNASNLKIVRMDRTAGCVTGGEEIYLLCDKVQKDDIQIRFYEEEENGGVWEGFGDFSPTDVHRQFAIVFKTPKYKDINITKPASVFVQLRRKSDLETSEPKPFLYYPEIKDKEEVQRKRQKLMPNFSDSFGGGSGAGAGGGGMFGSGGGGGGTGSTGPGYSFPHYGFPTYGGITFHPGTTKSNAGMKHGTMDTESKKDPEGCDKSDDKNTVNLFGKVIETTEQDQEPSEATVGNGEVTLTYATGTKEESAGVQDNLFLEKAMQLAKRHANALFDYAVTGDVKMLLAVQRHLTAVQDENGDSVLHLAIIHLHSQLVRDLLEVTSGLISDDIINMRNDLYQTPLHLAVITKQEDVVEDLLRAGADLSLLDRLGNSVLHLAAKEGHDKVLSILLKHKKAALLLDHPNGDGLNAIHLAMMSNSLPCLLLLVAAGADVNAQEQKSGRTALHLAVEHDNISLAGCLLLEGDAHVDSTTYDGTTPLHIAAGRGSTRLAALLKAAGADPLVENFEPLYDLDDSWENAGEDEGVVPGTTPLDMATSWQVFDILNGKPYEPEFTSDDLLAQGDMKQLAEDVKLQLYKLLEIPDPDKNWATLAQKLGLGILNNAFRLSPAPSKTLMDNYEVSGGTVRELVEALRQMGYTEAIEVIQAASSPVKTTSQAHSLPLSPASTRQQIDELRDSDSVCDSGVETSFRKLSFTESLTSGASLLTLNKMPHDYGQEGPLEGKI
T1 sequence (Q00653 whole entry, looked up): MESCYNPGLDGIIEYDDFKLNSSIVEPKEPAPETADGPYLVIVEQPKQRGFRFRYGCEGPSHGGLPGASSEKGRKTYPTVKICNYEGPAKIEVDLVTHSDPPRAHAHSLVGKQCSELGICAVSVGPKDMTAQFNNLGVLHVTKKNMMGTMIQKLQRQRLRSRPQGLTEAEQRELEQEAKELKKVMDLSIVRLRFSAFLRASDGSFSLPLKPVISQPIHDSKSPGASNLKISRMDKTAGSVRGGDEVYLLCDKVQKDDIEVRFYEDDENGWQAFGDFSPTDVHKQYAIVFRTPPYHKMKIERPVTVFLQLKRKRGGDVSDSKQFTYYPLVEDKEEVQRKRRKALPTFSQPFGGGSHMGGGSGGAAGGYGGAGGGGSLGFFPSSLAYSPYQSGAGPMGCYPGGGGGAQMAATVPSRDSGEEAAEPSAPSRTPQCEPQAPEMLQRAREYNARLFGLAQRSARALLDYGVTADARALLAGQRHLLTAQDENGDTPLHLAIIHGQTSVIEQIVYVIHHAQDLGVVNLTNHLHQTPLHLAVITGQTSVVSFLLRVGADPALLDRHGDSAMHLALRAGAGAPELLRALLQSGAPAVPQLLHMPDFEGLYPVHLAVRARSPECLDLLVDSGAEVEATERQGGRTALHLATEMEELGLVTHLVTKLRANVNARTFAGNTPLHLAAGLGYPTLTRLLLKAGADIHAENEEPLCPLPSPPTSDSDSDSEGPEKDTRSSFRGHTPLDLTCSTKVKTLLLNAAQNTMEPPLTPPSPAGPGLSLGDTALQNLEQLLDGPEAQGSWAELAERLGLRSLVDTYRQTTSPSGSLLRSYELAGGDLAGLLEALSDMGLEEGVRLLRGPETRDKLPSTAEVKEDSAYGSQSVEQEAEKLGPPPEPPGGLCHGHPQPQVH
T1 sequence (Q04206 whole entry, looked up): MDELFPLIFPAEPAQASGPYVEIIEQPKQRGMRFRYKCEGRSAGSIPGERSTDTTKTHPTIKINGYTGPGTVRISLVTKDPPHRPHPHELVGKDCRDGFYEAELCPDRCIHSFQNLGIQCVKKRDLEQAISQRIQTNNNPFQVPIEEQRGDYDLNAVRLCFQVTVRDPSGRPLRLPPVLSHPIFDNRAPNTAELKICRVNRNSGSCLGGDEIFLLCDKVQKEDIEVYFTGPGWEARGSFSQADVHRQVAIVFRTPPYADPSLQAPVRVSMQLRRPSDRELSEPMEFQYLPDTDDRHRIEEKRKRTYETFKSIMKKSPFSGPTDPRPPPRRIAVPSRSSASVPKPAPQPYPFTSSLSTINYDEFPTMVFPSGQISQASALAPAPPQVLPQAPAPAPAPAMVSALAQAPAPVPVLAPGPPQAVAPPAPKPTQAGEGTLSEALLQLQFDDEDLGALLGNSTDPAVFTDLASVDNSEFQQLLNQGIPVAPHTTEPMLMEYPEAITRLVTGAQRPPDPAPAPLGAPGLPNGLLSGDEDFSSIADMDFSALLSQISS
Nuclear factor NF-kappa-B complex, sequence (P19838 1-433 limits assumed): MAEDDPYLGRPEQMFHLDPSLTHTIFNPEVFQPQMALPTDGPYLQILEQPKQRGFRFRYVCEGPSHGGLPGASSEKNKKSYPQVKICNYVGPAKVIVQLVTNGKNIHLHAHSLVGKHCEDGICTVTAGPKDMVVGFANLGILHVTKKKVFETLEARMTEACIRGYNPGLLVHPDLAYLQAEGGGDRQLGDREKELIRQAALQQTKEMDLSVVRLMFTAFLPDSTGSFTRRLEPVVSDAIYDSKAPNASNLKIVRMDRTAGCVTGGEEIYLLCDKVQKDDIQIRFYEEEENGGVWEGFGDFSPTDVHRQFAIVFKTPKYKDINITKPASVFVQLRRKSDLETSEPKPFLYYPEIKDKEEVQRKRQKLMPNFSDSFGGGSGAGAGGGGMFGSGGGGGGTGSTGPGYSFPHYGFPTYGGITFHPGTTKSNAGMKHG
Nuclear factor NF-kappa-B complex, sequence (Q00653 1-454 limits assumed): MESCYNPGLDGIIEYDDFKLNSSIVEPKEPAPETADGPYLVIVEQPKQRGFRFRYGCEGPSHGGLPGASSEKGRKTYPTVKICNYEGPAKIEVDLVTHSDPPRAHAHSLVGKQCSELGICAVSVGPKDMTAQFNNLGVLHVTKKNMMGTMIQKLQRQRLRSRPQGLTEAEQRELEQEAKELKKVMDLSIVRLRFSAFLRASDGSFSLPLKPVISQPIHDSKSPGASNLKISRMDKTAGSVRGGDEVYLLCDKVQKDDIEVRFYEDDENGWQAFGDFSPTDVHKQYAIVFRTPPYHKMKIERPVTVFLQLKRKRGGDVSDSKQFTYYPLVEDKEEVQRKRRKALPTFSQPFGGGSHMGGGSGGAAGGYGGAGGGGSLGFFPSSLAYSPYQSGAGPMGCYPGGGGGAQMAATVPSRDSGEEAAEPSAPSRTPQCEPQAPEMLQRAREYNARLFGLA
Nuclear factor NF-kappa-B complex, sequence (Q04206 whole entry): as the sequence (Q04206 whole entry, looked up) above

| SMILES | EC50 [1] | Activity (HaCaT) | inhibition [2] | inhibition [3] | inhibition [4] | inhibition [5] |
| --- | --- | --- | --- | --- | --- | --- |
| CC(=O)OC(C)(C)[C@@H](C)CC[C@@H](C)[C@H]1CC[C@H]2[C@@H]3C[C@@H](O)[C@@]4(O)C[C@@H](O)C[C@@H](O)[C@]4(C)[C@H]3CC[C@]12C | 26.1 µM | Non-toxic | – | – | – | – |
| C=C(C)[C@@H](C)CC[C@@H](C)[C@H]1CC[C@H]2[C@@H]3C[C@@H](O)[C@@]4(O)C[C@@H](O)C[C@@H](O)[C@]4(C)[C@H]3CC[C@]12C | – | Non-toxic | Active | – | – | – |
| CC(=O)OC(C)(C)[C@@H](C)/C=C/[C@@H](C)[C@H]1CC[C@H]2[C@@H]3C[C@@H](O)[C@@]4(O)C[C@@H](O)C[C@@H](O)[C@]4(C)[C@H]3CC[C@]12C | 8.27 µM | Non-toxic | – | Dose-dependent effect | Dose-dependent effect | Dose-dependent effect |
